Results published in patent US11046694B2, “Compounds and methods for treating bacterial infections” (Entasis Therapeutics, Inc., priority 2018, dated 2021).
In brackets after ≈: the same amount, converted by molar mass. Where a name gives a salt, the structure may show the parent alone. Read-outs that look alike come from different tables or passages of the source.

Legend:
E. coli (ATCC25922) = experiment: MIC against E. coli; conditions: Escherichia coli, ATCC25922, read-out: E. coli MIC (ATCC25922) (mg/L)
P. aeruginosa WT (PAO1) = experiment: MIC, CLSI broth microdilution, P. aeruginosa; assay type: cell-based; conditions: Pseudomonas aeruginosa
[1] = test system: K. pneumoniae (ATCC700603); experiment: MIC against K. pneumoniae; conditions: Klebsiella pneumoniae, ATCC700603, read-out: K. pneumoniae MIC (ATCC700603)
A. baumannii (ARC3495) = experiment: MIC against A. baumannii; conditions: Acinetobacter baumannii, read-out: A. baumannii MIC (ARC3495) (mg/L)
P. aeruginosa PBP1a = P. aeruginosa PBP1a (Pseudomonas aeruginosa, UniProt Q07806); assay type: biochemical; conditions: P. aeruginosa PBP1a 60 nM, BOCILLIN FL 30 nM, pH 7.0
P. aeruginosa PBP3 = P. aeruginosa PBP3 (Pseudomonas aeruginosa, UniProt G3XD46); assay type: biochemical; conditions: P. aeruginosa PBP3 60 nM, BOCILLIN FL 30 nM, pH 7.0
[2] = PAO1, CLSI broth microdilution, read-out: P. aeruginosa WT (PAO1) MIC

Sequence of P. aeruginosa PBP1a (Q07806 whole entry): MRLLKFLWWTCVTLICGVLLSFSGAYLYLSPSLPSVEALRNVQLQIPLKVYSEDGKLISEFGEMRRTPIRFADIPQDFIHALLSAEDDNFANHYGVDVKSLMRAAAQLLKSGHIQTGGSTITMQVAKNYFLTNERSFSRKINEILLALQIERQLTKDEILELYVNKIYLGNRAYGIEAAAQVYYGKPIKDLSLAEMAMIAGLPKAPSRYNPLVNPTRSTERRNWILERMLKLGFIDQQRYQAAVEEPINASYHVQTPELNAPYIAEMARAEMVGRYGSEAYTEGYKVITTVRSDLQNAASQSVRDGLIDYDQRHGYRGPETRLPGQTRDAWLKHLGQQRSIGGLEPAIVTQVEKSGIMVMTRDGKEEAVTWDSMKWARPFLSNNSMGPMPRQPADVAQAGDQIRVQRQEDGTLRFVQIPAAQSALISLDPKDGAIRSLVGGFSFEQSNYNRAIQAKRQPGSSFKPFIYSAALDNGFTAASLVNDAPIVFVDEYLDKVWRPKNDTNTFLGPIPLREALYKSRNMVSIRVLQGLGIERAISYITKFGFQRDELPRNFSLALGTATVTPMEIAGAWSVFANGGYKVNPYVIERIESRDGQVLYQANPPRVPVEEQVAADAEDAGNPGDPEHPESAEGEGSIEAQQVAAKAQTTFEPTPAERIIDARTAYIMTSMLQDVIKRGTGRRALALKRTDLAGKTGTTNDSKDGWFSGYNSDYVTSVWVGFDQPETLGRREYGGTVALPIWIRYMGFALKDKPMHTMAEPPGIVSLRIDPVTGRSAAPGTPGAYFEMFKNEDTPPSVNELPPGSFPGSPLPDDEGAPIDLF
Sequence of P. aeruginosa PBP3 (G3XD46 whole entry): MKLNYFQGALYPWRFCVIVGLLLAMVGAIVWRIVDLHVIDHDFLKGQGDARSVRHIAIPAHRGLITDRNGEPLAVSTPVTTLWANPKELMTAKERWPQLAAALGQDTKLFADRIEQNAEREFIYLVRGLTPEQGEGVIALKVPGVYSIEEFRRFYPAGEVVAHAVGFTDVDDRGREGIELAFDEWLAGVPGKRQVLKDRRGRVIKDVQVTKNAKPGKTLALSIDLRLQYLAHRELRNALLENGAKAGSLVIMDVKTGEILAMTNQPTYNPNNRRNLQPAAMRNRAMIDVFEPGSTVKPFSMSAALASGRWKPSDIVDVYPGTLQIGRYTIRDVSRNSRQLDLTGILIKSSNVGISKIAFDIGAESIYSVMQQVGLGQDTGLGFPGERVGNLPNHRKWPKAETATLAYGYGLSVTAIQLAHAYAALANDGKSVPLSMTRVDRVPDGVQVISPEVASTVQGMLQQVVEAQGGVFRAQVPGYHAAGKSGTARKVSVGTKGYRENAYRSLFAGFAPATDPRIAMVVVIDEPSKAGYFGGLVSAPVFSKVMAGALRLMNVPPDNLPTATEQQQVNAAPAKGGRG

| Compound | MIC (E. coli (ATCC25922)) [mg/L] | MIC (P. aeruginosa WT (PAO1); [2]) [mg/L] | MIC [1] [mg/L] | MIC (A. baumannii (ARC3495)) [mg/L] | PBP1a acylation rate, k(on) (M^−1 · s^−1) (P. aeruginosa PBP1a) | PBP3 acylation rate, k(on) (M^−1 · s^−1) (P. aeruginosa PBP3) | MIC (P. aeruginosa WT (PAO1); PAO1, read-out: P. aeruginosa WT (PAO1) MIC (mg/L)) [mg/L] |
| --- | --- | --- | --- | --- | --- | --- | --- |
| CN/C(=N\OC(=O)NCCC(N)=O)[C@@H]1c2c(cnn2C)[C@@H]2CN1C(=O)N2OS(=O)(=O)O (racemic) [Example 16] | 8 to 16 (≈ 17.4 to 34.8 µM) | 8 to 16 (≈ 17.4 to 34.8 µM) | > 16 | > 16 | ** (** represents a k(on) of 100 to 10,000 M^−1 · s^−1) | *** (*** represents a k(on) > 10,000 M^−1 · s^−1) | – |
| CN/C(=N\OC(=O)NO)[C@@H]1c2c(cnn2C)[C@@H]2CN1C(=O)N2OS(=O)(=O)O (racemic) [Example 17] | 8 to 16 (≈ 19.7 to 39.5 µM) | 8 to 16 (≈ 19.7 to 39.5 µM) | 8 to 16 (≈ 19.7 to 39.5 µM) | > 16 | ** (** represents a k(on) of 100 to 10,000 M^−1 · s^−1) | *** (*** represents a k(on) > 10,000 M^−1 · s^−1) | – |
| CN/C(=N\OC(=O)NCCCCN)[C@@H]1c2c(cnn2C)[C@@H]2CN1C(=O)N2OS(=O)(=O)O (racemic) [Example 19] | 8 to 16 (≈ 17.4 to 34.7 µM) | < 8 | > 16 | 8 to 16 (≈ 17.4 to 34.7 µM) | ** (** represents a k(on) of 100 to 10,000 M^−1 · s^−1) | *** (*** represents a k(on) > 10,000 M^−1 · s^−1) | – |
| CNC(=O)O/N=C(\NC)[C@@H]1c2c(cnn2C)[C@@H]2CN1C(=O)N2OS(=O)(=O)O (racemic) [Example 20] | 8 to 16 (≈ 19.8 to 39.7 µM) | – | > 16 | 8 to 16 (≈ 19.8 to 39.7 µM) | ** (** represents a k(on) of 100 to 10,000 M^−1 · s^−1) | *** (*** represents a k(on) > 10,000 M^−1 · s^−1) | 8 to 16 (≈ 19.8 to 39.7 µM) |
| CN/C(=N\OC(=O)N(C)C)[C@@H]1c2c(cnn2C)[C@@H]2CN1C(=O)N2OS(=O)(=O)O (racemic) [Example 21] | < 8 | > 16 | > 16 | > 16 | ** (** represents a k(on) of 100 to 10,000 M^−1 · s^−1) | *** (*** represents a k(on) > 10,000 M^−1 · s^−1) | – |
| CN/C(=N\OC(=O)NCC(N)=O)[C@@H]1c2c(cnn2C)[C@@H]2CN1C(=O)N2OS(=O)(=O)O (racemic) [Example 23] | 8 to 16 (≈ 17.9 to 35.8 µM) | 8 to 16 (≈ 17.9 to 35.8 µM) | 8 to 16 (≈ 17.9 to 35.8 µM) | > 16 | ** (** represents a k(on) of 100 to 10,000 M^−1 · s^−1) | *** (*** represents a k(on) > 10,000 M^−1 · s^−1) | – |
| CN/C(=N\OC(=O)N[C@H]1CCNC1)[C@@H]1c2c(cnn2C)[C@@H]2CN1C(=O)N2OS(=O)(=O)O (racemic) [Example 24] | 8 to 16 (≈ 17.4 to 34.9 µM) | < 8 | 8 to 16 (≈ 17.4 to 34.9 µM) | 8 to 16 (≈ 17.4 to 34.9 µM) | ** (** represents a k(on) of 100 to 10,000 M^−1 · s^−1) | *** (*** represents a k(on) > 10,000 M^−1 · s^−1) | – |
| CN/C(=N\OC(=O)NCCCN)[C@@H]1c2c(cnn2C)[C@@H]2CN1C(=O)N2OS(=O)(=O)O (racemic) [Example 25] | 8 to 16 (≈ 17.9 to 35.8 µM) | < 8 | > 16 | 8 to 16 (≈ 17.9 to 35.8 µM) | ** (** represents a k(on) of 100 to 10,000 M^−1 · s^−1) | *** (*** represents a k(on) > 10,000 M^−1 · s^−1) | – |
| CN/C(=N\OC(=O)NC1CCNCC1)[C@@H]1c2c(cnn2C)[C@@H]2CN1C(=O)N2OS(=O)(=O)O (racemic) [Example 29] | 8 to 16 (≈ 16.9 to 33.9 µM) | < 8 | > 16 | 8 to 16 (≈ 16.9 to 33.9 µM) | ** (** represents a k(on) of 100 to 10,000 M^−1 · s^−1) | *** (*** represents a k(on) > 10,000 M^−1 · s^−1) | – |
| CN/C(=N\OC(=O)N[C@H]1CC[C@H](N)CC1)[C@@H]1c2c(cnn2C)[C@@H]2CN1C(=O)N2OS(=O)(=O)O (racemic) [Example 30] | 8 to 16 (≈ 16.4 to 32.9 µM) | < 8 | > 16 | 8 to 16 (≈ 16.4 to 32.9 µM) | ** (** represents a k(on) of 100 to 10,000 M^−1 · s^−1) | *** (*** represents a k(on) > 10,000 M^−1 · s^−1) | – |
| CN/C(=N\OC(=O)NCCCC[C@H](N)C(=O)OC(C)(C)C)[C@@H]1c2c(cnn2C)[C@@H]2CN1C(=O)N2OS(=O)(=O)O (racemic) [Example 32] | < 8 | > 16 | > 16 | > 16 | ** (** represents a k(on) of 100 to 10,000 M^−1 · s^−1) | *** (*** represents a k(on) > 10,000 M^−1 · s^−1) | – |
| CN/C(=N\OC(=O)NOC)[C@@H]1c2c(cnn2C)[C@@H]2CN1C(=O)N2OS(=O)(=O)O (racemic) [Example 33] | 8 to 16 (≈ 19.1 to 38.2 µM) | 8 to 16 (≈ 19.1 to 38.2 µM) | > 16 | 8 to 16 (≈ 19.1 to 38.2 µM) | ** (** represents a k(on) of 100 to 10,000 M^−1 · s^−1) | *** (*** represents a k(on) > 10,000 M^−1 · s^−1) | – |
| CN/C(=N\OC(=O)NC(C)(C)C(=O)O)[C@@H]1c2c(cnn2C)[C@@H]2CN1C(=O)N2OS(=O)(=O)O (racemic) [Example 34] | 8 to 16 (≈ 16.8 to 33.7 µM) | 8 to 16 (≈ 16.8 to 33.7 µM) | > 16 | > 16 | ** (** represents a k(on) of 100 to 10,000 M^−1 · s^−1) | *** (*** represents a k(on) > 10,000 M^−1 · s^−1) | – |
| CN/C(=N\O)[C@@H]1c2c(cnn2C/C=N/OCCN)[C@@H]2CN1C(=O)N2OS(=O)(=O)O (racemic) [Example 49, 1-((E)-2-((2-aminoethoxy)imino)ethyl)-8-((Z)—N′-hydroxy-N-methylcarbamimidoyl)-6-oxo-4,8-dihydro-1H-4,7-methanopyrazolo[3,4-e][1,3]diazepin-5(6H)-yl hydrogen sulfate] | 8 to 16 | < 8 | 8 to 16 | 8 to 16 | * (* represents a k(on) < 100 M^−1 · s^−1) | *** (*** represents a k(on) > 10,000 M^−1 · s^−1) | – |

Further lines, with some results ahead:

| MIC (E. coli (ATCC25922)) [mg/L] | MIC (P. aeruginosa WT (PAO1); [2]) [mg/L] | MIC [1] [mg/L] | MIC (A. baumannii (ARC3495)) [mg/L] | Compound | PBP1a acylation rate, k(on) (M^−1 · s^−1) (P. aeruginosa PBP1a) | PBP3 acylation rate, k(on) (M^−1 · s^−1) (P. aeruginosa PBP3) | MIC (P. aeruginosa WT (PAO1); PAO1, read-out: P. aeruginosa WT (PAO1) MIC (mg/L)) [mg/L] |
| --- | --- | --- | --- | --- | --- | --- | --- |
| < 8 | > 16 | > 16 | > 16 | CN/C(=N\OC(=O)NCc1cnn(C)c1)[C@@H]1c2c(cnn2C)[C@@H]2CN1C(=O)N2OS(=O)(=O)O (racemic) [Example 15, (4R,8S)-1-methyl-8-((Z)—N-methyl-N′-((((1-methyl-1H-pyrazol-4-yl)methyl)carbamoyl)oxy)carbamimidoyl)-6-oxo-4,8-dihydro-1H-4,7-methanopyrazolo[3,4-e][1,3]diazepin-5(6H)-yl hydrogen sulfate] | ** (** represents a k(on) of 100 to 10,000 M^−1 · s^−1) | *** (*** represents a k(on) > 10,000 M^−1 · s^−1) | – |
| < 8 | < 8 | 8 to 16 | 8 to 16 | CN/C(=N\OC(=O)NCCN)[C@@H]1c2c(cnn2C)[C@@H]2CN1C(=O)N2OS(=O)(=O)O (racemic) [Example 18, (4R,8S)-8-((Z)—N′-(((2-aminoethyl)carbamoyl)oxy)-N-methylcarbamimidoyl)-1-methyl-6-oxo-4,8-dihydro-1H-4,7-methanopyrazolo[3,4-e][1,3]diazepin-5(6H)-yl hydrogen sulfate] | ** (** represents a k(on) of 100 to 10,000 M^−1 · s^−1) | *** (*** represents a k(on) > 10,000 M^−1 · s^−1) | – |
| < 8 | 8 to 16 (≈ 17.9 to 35.8 µM) | 8 to 16 (≈ 17.9 to 35.8 µM) | > 16 | CN/C(=N\OC(=O)NCC(=O)O)[C@@H]1c2c(cnn2C)[C@@H]2CN1C(=O)N2OS(=O)(=O)O (racemic) [Example 22] | ** (** represents a k(on) of 100 to 10,000 M^−1 · s^−1) | *** (*** represents a k(on) > 10,000 M^−1 · s^−1) | – |
| < 8 | < 8 | < 8 | < 8 | CN/C(=N\OC(=O)NC1CNC1)[C@@H]1c2c(cnn2C)[C@@H]2CN1C(=O)N2OS(=O)(=O)O (racemic) [Example 26] | ** (** represents a k(on) of 100 to 10,000 M^−1 · s^−1) | *** (*** represents a k(on) > 10,000 M^−1 · s^−1) | – |
| < 8 | 8 to 16 (≈ 17.3 to 34.7 µM) | > 16 | > 16 | CN/C(=N\OC(=O)NCCC(=O)O)[C@@H]1c2c(cnn2C)[C@@H]2CN1C(=O)N2OS(=O)(=O)O (racemic) [Example 27] | ** (** represents a k(on) of 100 to 10,000 M^−1 · s^−1) | *** (*** represents a k(on) > 10,000 M^−1 · s^−1) | – |
| < 8 | < 8 | > 16 | 8 to 16 (≈ 16.4 to 32.9 µM) | CN/C(=N\OC(=O)NCC1CCNCC1)[C@@H]1c2c(cnn2C)[C@@H]2CN1C(=O)N2OS(=O)(=O)O (racemic) [Example 28] | ** (** represents a k(on) of 100 to 10,000 M^−1 · s^−1) | *** (*** represents a k(on) > 10,000 M^−1 · s^−1) | – |
| < 8 | 8 to 16 (≈ 15.4 to 30.9 µM) | > 16 | > 16 | CN/C(=N\OC(=O)NCCCC[C@H](N)C(=O)O)[C@@H]1c2c(cnn2C)[C@@H]2CN1C(=O)N2OS(=O)(=O)O (racemic) [Example 31] | ** (** represents a k(on) of 100 to 10,000 M^−1 · s^−1) | *** (*** represents a k(on) > 10,000 M^−1 · s^−1) | – |
